According to PubChem BioAssay (NCI):
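1) Cells in 96-well plates. 2) Compound, 48 h, 5 concentrations. 3) Linear interpolation between surrounding doses. 4) Unreached endpoint = highest concentration. GI50 is the concentration that inhibits growth by half. TGI is the concentration that stops growth completely.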

Experiments:
Experiment in all cases: NCI anticancer screen, dose series, 48 h
[1] = test system: 786-0 renal
[2] = test system: A549 NSCLC
[3] = test system: MALME-3M melanoma
[4] = test system: OVCAR-8 ovarian
[5] = test system: RXF 393 renal
[6] = test system: SK-OV-3 ovarian
[7] = test system: SNB-75 CNS
[8] = test system: SR leukemia
[9] = test system: UACC-257 melanoma

For `CCc1cccc(C(C)C)c1NC(=O)C(=O)C(CC(=O)Nc1ccc(Cl)c(Cl)c1)C(=O)OC` (configuration not stated), the TGI [1] was over 100 µM, the TGI [2] was over 100 µM and the TGI [3] was over 100 µM. For the same molecule, the TGI [4] was over 100 µM, the TGI [5] was over 100 µM and the TGI [6] was over 100 µM. For the same molecule, the TGI [7] was over 100 µM, the TGI [8] was over 100 µM and the TGI [9] was over 100 µM.

With `Cc1ccc(S(=O)(=O)OCC23CCC(CC2)C2CC23)cc1` (configuration not stated) the TGI [1] was over 100 µM, the TGI [2] was over 100 µM and the TGI [3] was over 100 µM. For the same molecule, the TGI [4] was over 100 µM, the TGI [6] was over 100 µM and the TGI [7] was 40.6 µM. It also gave a TGI [8] of over 100 µM and a TGI [9] of over 100 µM.

With `C1CCN(c2nc(=[N+]3CCCCC3)ss2)CC1` the TGI [1] was over 100 µM, the TGI [2] was over 100 µM and the TGI [3] was over 100 µM. The TGI [4] was over 100 µM, the TGI [5] was over 100 µM and the TGI [6] was over 100 µM. The TGI [7] was over 100 µM, the TGI [8] was over 100 µM and the TGI [9] was over 100 µM.

`COC(=O)CCC(=O)CC(=O)C(=O)Nc1c(Cl)cc([N+](=O)[O-])cc1Cl` gave a TGI [1] of over 100 µM, a TGI [2] of over 100 µM and a TGI [3] of over 100 µM. It also gave a TGI [4] of over 100 µM, a TGI [5] of over 100 µM and a TGI [6] of over 100 µM. The TGI [7] was over 100 µM, the TGI [8] was 61.7 µM and the TGI [9] was over 100 µM.

In the case of `CN(C)c1ccc(Nc2cc(-c3cccc(OC(F)(F)F)c3)nc3ccc(N4CCCC4)cc23)cc1`, the GI50 [1] was 1.71 µM, the TGI [1] was 3.24 µM and the GI50 [2] was 1.7 µM. The TGI [2] was 3.22 µM, the GI50 [3] was 1.66 µM and the TGI [3] was 3.11 µM. The GI50 [5] was 1.66 µM, the TGI [5] was 3.47 µM and the GI50 [6] was 13.1 µM. The TGI [6] was 25.7 µM, the GI50 [7] was 1.64 µM and the TGI [7] was 3.12 µM. The GI50 [9] was 1.75 µM and the TGI [9] was 3.35 µM.

With `COCCCNC(=O)CC(=O)NCCCOC` the TGI [1] was over 100 µM, the TGI [2] was over 100 µM and the TGI [3] was over 100 µM. The TGI [4] was over 100 µM, the TGI [5] was over 100 µM and the TGI [8] was over 100 µM. The TGI [9] was over 100 µM.

For `O=C1C2C3C=CC(C2C(=O)N1COP(=O)(O)O)C1C2C(=O)N(COP(=O)(O)O)C(=O)C2C31` (configuration not stated), the TGI [1] was over 100 µM, the TGI [2] was over 100 µM and the TGI [3] was over 100 µM. For the same molecule, the TGI [4] was over 100 µM, the TGI [5] was over 100 µM and the TGI [6] was over 100 µM. It also gave a TGI [7] of over 100 µM, a TGI [8] of 38.6 µM and a TGI [9] of over 100 µM.

`CCCCCCCCCCCCCP(=O)(O)OCC` gave a TGI [1] of over 100 µM, a TGI [2] of over 100 µM and a TGI [3] of over 100 µM. For the same molecule, the TGI [4] was over 100 µM, the TGI [5] was over 100 µM and the TGI [7] was over 100 µM. The TGI [9] was over 100 µM.

`O=C(O)/C(=C/C=C/c1ccccc1)c1csc(-c2nc(/C(=C\C=C\c3ccccc3)C(=O)O)cs2)n1` showed a TGI [1] of 56.1 µM, a TGI [2] of over 100 µM and a TGI [3] of 60 µM. The TGI [4] was over 100 µM, the TGI [5] was 82.4 µM and the TGI [6] was over 100 µM. The TGI [7] was 98.7 µM and the TGI [9] was over 100 µM.

Work on `C=C(Br)N(CC)CC` yielded a TGI [1] of over 100 µM, a TGI [2] of over 100 µM and a TGI [3] of over 100 µM. It also gave a TGI [4] of over 100 µM, a TGI [5] of over 100 µM and a TGI [6] of over 100 µM. It also gave a TGI [7] of over 100 µM, a TGI [8] of over 100 µM and a TGI [9] of over 100 µM.

For `NCCCNCCCCN(CCCN)/[N+]([O-])=N\O`, the TGI [1] was over 100 µM, the TGI [2] was over 100 µM and the TGI [3] was over 100 µM. It also gave a TGI [4] of over 100 µM, a TGI [5] of over 100 µM and a TGI [7] of over 100 µM. For the same molecule, the TGI [8] was 83.9 µM and the TGI [9] was over 100 µM.

`C[C@]1(CO)CCC[C@@]2(C)C1CC[C@H]1CC3C[C@]12CC[C@]3(C)O` (some centres not stated) was tested, and the TGI [1] was over 100 µM, the TGI [2] was over 100 µM and the TGI [3] was over 100 µM. It also gave a TGI [4] of over 100 µM, a TGI [5] of over 100 µM and a TGI [6] of over 100 µM. It also gave a TGI [7] of over 100 µM, a TGI [8] of over 100 µM and a TGI [9] of over 100 µM.

`Clc1ccc(C2SCc3nc4ccccc4n32)cc1Cl` (configuration not stated) showed a TGI [1] of 27.3 µM, a TGI [2] of 32.6 µM and a TGI [3] of 42.5 µM. It also gave a TGI [4] of 26.9 µM, a TGI [5] of 15.7 µM and a TGI [6] of 36.2 µM. It also gave a TGI [7] of 14.3 µM and a TGI [8] of 55.1 µM.

With `CCc1cccc(C(C)C)c1N1C(=O)C(=O)C(c2nc3ccccc3s2)C(=O)C1=O` the TGI [1] was over 50 µM, the TGI [2] was over 50 µM and the TGI [3] was over 45.3 µM. It also gave a TGI [4] of over 50 µM, a TGI [5] of over 50 µM and a TGI [6] of over 50 µM. For the same molecule, the TGI [7] was over 50 µM and the TGI [9] was over 50 µM.

Molecule `COc1cc2c3c(c1OC)-c1c(ccc4c1OCO4)CC3(C#N)N(C(=O)c1ccccc1)CC2` (configuration not stated) has a TGI [1] of over 100 µM, a TGI [2] of over 100 µM and a TGI [3] of over 100 µM. For the same molecule, the TGI [4] was over 100 µM, the TGI [5] was over 100 µM and the TGI [6] was over 100 µM. It also gave a TGI [7] of 49.4 µM, a TGI [8] of over 100 µM and a TGI [9] of over 100 µM.

Molecule `CCC1CN2CCc3c([nH]c4ccccc34)C2C[C@@H]1CC(=O)N(C)C` (some centres not stated) has a TGI [1] of over 100 µM, a TGI [2] of over 100 µM and a TGI [3] of over 100 µM. The TGI [4] was over 100 µM, the TGI [5] was over 100 µM and the TGI [6] was over 100 µM. It also gave a TGI [7] of 92.6 µM, a TGI [8] of over 100 µM and a TGI [9] of over 100 µM.

Molecule `CCOC(=O)C(=Cc1ccc(Oc2ccccc2)cc1)C(=O)OCC` has a TGI [1] of 3.47 µM, a TGI [2] of 22.6 µM and a TGI [3] of 7.4 µM. The TGI [4] was 10.7 µM, the TGI [5] was 4.69 µM and the TGI [6] was 20.5 µM. It also gave a TGI [7] of 11 µM, a TGI [8] of 6.07 µM and a TGI [9] of 6.63 µM.

Work on `Cc1cc(C)nc(NS(=O)(=O)c2ccc(Nc3c4ccc(Cl)cc4nc4c(C(=O)Nc5ccc(S(N)(=O)=O)cc5)cccc34)cc2)n1` yielded a TGI [1] of 28.7 µM, a TGI [3] of over 100 µM and a TGI [4] of 37.7 µM. For the same molecule, the TGI [5] was 26.7 µM, the TGI [6] was 30.5 µM and the TGI [7] was over 100 µM. For the same molecule, the TGI [8] was 51.5 µM and the TGI [9] was 43.9 µM.
